Structures can show the parent of a compound that is named as a salt.

One experiment relates to Intracellular elastase. The experiment in a line: Oral in vivo model using IL-8 induced lung infiltrates for the assessment of intracellular elastase inhibition (hamster test). Particulars: effective dose of less than 40 mg/kg, IL-8 intratracheal. As for the experimental part:
An Oral in vivo Model Using IL-8 Induced Lung Infiltrates For the Assessment of Intracellular Elastase Inhibition
Adult hamsters (100-150 g) are randomised into groups (n=4) and fasted overnight. Under gaseous anaesthetic (3% isofluorane) animals are dosed orally with 1 mL/100 g water as vehicle or containing predissolved compounds. Either at the same time, or subsequently under anaesthetic, animals are dosed intratracheally with 1 ug recombinant human IL-8 in 100 uL sterile saline. Six hours after IL-8 dosing animals are sacrificed using intrapertoneal pentobarbitone. The lungs are ravaged with 2×2.5 mL sterile saline and femurs are removed by dissection.
Intracellular elastase is prepared from neutrophils collected by lavage and from femoral bone marrow. This is achieved by sonication of the neutrophils and centrifugation to yield intracellular granules. These are disrupted by freeze/thawing and sonication. Elastase and myeloperoxidase assays are then performed on these samples to assess the efficacy of the compounds and to normalise for neutrophil recovery.

Experiment [1] has as its target T1, human neutrophil elastase (Homo sapiens, UniProt P08246).
T1 sequence (P08246 30-267): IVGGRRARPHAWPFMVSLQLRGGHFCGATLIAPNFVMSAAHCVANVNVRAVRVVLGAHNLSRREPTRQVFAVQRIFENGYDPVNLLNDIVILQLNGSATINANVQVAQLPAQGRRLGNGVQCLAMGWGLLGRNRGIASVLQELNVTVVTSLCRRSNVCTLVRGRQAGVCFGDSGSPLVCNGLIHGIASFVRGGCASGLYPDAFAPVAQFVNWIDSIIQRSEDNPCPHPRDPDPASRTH
The experiment in a line: In vitro assay of human neutrophil elastase (HNE). Format: biochemical. Conditions: 118 nM purified human neutrophil elastase, pH 8.6, 15 min incubation at 30° C., MeO-succinyl-alanyl-alanyl-prolyl-valyl-p-nitroanilide substrate; read-out: HNE IC50. In outline:
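Residual activity was taken as the 10 min rate of absorbance rise at 405 nm after adding 0.6 mM MeO-succinyl-AAPV-p-nitroanilide. Curve fitting of activity against concentration gave IC50.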

Take `CC(C)[C@H]1C(=O)N(S(C)(=O)=O)[C@H]2CCN(C(=O)/C=C/CN3C(C)CCCC3C)[C@H]12.Cl` (relative stereo) [Example 139, rel-(3R,3aR,6aS)-4-[4-(2,6-Dimethyl-piperidin-1-yl)-but-2E-enoyl]-3-isopropyl-1-methanesulfonyl-hexahydro-pyrrolo[3,2-b]pyrrol-2-one hydrochloride]: in the experiment with Intracellular elastase, the duration of effect entry was “at least 6 hours”. The half-maximal inhibitory concentration (IC50) in experiment [1] was 55 nM.

In the case of `COC(=O)[C@@H]1CCCN1C/C=C/C(=O)N1CC[C@H]2[C@H]1[C@@H](C(C)C)C(=O)N2S(C)(=O)=O` (relative stereo) [Example 140, 1-[4-(rel-6R-Isopropyl-4-methanesulfonyl-5-oxo-hexahydro-(3aS,6aR)-pyrrolo[3,2-b]pyrrol-1-yl)-4-oxo-but-2E-enyl]-pyrrolidine-2S-carboxylic acid methyl ester hydrochloride], the duration of effect result with Intracellular elastase is “at least 6 hours”. For the same compound, the half-inhibitory concentration (IC50) in experiment [1] stood at 36 nM.

In the case of `CCCN(C)C/C=C/C(=O)N1CC[C@H]2[C@H]1[C@@H](C(C)C)C(=O)N2S(C)(=O)=O.Cl` (relative stereo) [Example 141, rel-(3R,3aR,6aS)-3-Isopropyl-1-methanesulfonyl-4-[4-(methyl-propyl-amino)-but-2E-enoyl]-hexahydro-pyrrolo[3,2-b]pyrrol-2-one hydrochloride], in the experiment on Intracellular elastase, the duration of effect result was “at least 6 hours”. Moreover, the IC50 in experiment [1] came to 176 nM.

Take `CC(C)[C@H]1C(=O)N(S(C)(=O)=O)[C@H]2CCN(C(=O)/C=C/CN3CCOCC3)[C@H]12.Cl` (relative stereo) [Example 142, rel-(3R,3aR,6aS)-3-isopropyl-1-methanesulfonyl-4-(4-morpholin-4-yl-but-2E-enoyl)-hexahydro-pyrrolo[3,2-b]pyrrol-2-one hydrochloride]: the duration of effect entry in the experiment with Intracellular elastase is “at least 6 hours”. The concentration for half-maximal inhibition (IC50) in experiment [1] was 55 nM.

Consider `CC(C)[C@H]1C(=O)N(S(C)(=O)=O)[C@H]2CCN(C(=O)/C=C/CN3CCN(C)CC3)[C@H]12.Cl` (relative stereo) [Example 143, rel-(3R,3aR,6aS)-3-Isopropyl-1-methanesulfonyl-4-[4-(4-methyl-piperazin-1-yl)-but-2E-enoyl]-hexahydro-pyrrolo[3,2-b]pyrrol-2-one hydrochloride], for which the duration of effect result with Intracellular elastase was “at least 6 hours”. Further, the half-maximal inhibitory concentration (IC50) in experiment [1] was determined as 33 nM.

Consider `CC(C)[C@H]1C(=O)N(S(C)(=O)=O)[C@H]2CCN(C(=O)/C=C/CN(C(C)C)C(C)C)[C@H]12.Cl` (relative stereo) [Example 144, rel-(3R,3aR,6aS)-4-(4-Diisopropylamino-but-2E-enoyl)-3-isopropyl-1-methanesulfonyl-hexahydro-pyrrolo[3,2-b]pyrrol-2-one hydrochloride], for which the duration of effect entry in the experiment with Intracellular elastase is on record as “at least 6 hours”. Besides, the IC50 in experiment [1] was 71 nM.

As to `CCN(CC)C/C=C/C(=O)N1CC[C@H]2[C@H]1[C@@H](C(C)C)C(=O)N2S(C)(=O)=O` (relative stereo) [Example 145, rel-(3R,3aR,6aS)-4-Diethylamino-but-2E-enoyl)-3-isopropyl-1-methanesulfonyl-hexahydro-pyrrolo[3,2-b]pyrrol-2-one hydrochloride], the duration of effect entry in the experiment with Intracellular elastase is recorded as “at least 6 hours”. Further, the half-maximal inhibitory concentration (IC50) in experiment [1] was determined as 39 nM.

Regarding `CC(C)[C@H]1C(=O)N(S(C)(=O)=O)[C@H]2CCN(C(=O)/C=C/CN3CCCC3)[C@H]12.Cl` (relative stereo) [Example 146, rel-(3R,3aR,6aS)-3-Isopropyl-1-methanesulfonyl-4(4-pyrrolidin-1-yl-but-2E-enoyl)-hexahydro-pyrrolo[3,2-b]pyrrol-2-one hydrochloride], in the experiment on Intracellular elastase, the duration of effect entry was “at least 6 hours”. Further, in experiment [1], the IC50 turned out to be 34 nM.

Take `CON(C)C/C=C/C(=O)N1CC[C@H]2[C@H]1[C@@H](C(C)C)C(=O)N2S(C)(=O)=O` (relative stereo) [Example 147, rel-(3R,3aR,6aS)-3-Isopropyl-1-methanesulfonyl-4-[4-(methoxy-methyl-amino)-but-E2-enoyl]-hexahydro-pyrrolo[3,2-b]pyrrol-2-one hydrochloride]: in the experiment with Intracellular elastase, the duration of effect entry is “at least 6 hours”. In experiment [1], the IC50 came out at 96 nM.

For `CC(C)[C@H]1C(=O)N(S(C)(=O)=O)[C@H]2CCN(C(=O)/C=C/CN(C)C)[C@H]12.Cl` (relative stereo) [Example 148, rel-(3R,3aR,6aS)-4-(4-Dimethylamino-but-2E-enoyl)-3-isopropyl-1-methanesulfonyl-hexahydro-pyrrolo[3,2-b]pyrrol-2-one hydrochloride], the duration of effect result in the experiment on Intracellular elastase was “at least 6 hours”. Besides, in experiment [1], the IC50 stood at 35 nM.

On to `CC(C)[C@H]1C(=O)N(S(C)(=O)=O)[C@H]2CCN(C(=O)/C=C/CN3C(C)CCC3C)[C@H]12.Cl` (relative stereo) [Example 149, rel-(3R,3aR,6aS)-4-[4-(2,5-Dimethyl-pyrrolidin-1-yl)-but-2E-enoyl]-3-isopropyl-1-methanesulfonyl-hexahydro-pyrrolo[3,2-b]pyrrol-2-one hydrochloride], for which the duration of effect entry in the experiment on Intracellular elastase is “at least 6 hours”. In addition, the concentration for half-maximal inhibition (IC50) in experiment [1] came out at 46 nM.

As for `CC(C)[C@H]1C(=O)N(S(C)(=O)=O)[C@H]2CCN(C(=O)/C=C/CN(C)CC(N)=O)[C@H]12` (relative stereo) [Example 150, rel-2-{[(4-(6R-Isopropyl-4-methanesulfonyl-5-oxo-hexahydro-(3aS,6aR)-pyrro[3,2-b]pyrrol-1-yl)-4-oxo-but-2E-enyl]-methyl-amino}-acetamide hydrochloride], the duration of effect entry in the experiment with Intracellular elastase is recorded as “at least 6 hours”. Moreover, the IC50 in experiment [1] amounted to 50 nM.

`CC(C)NC/C=C/C(=O)N1CC[C@H]2[C@H]1[C@@H](C(C)C)C(=O)N2S(C)(=O)=O.Cl` (relative stereo) [Example 151, rel-(3R,3aR,6aS)-3-Isopropyl-4-(4-isopropylamino-but-2E-enoyl)-1-methanesulfonyl-hexahydro-pyrrolo[3,2-b]pyrrol-2-one hydrochloride]: the duration of effect entry in the experiment on Intracellular elastase is reported as “at least 6 hours”. Besides, the IC50 in experiment [1] is 85 nM.

With `CC(C)[C@H]1C(=O)N(S(C)(=O)=O)[C@H]2CCN(C(=O)/C=C/CN3CCC(C(N)=O)CC3)[C@H]12.Cl` (relative stereo) [Example 152, rel-1-[4-(6R-Isopropyl-4-methanesulfonyl-5-oxo-hexahydro-(3aS,6aR)-pyrrolo[3,2-b]pyrrol-1-yl)-4-oxo-but-2E-enyl]-piperidine-4-carboxylic acid amide hydrochloride], the duration of effect result in the experiment with Intracellular elastase is “at least 6 hours”. Also, the 50% inhibitory concentration (IC50) in experiment [1] came to 21 nM.

For the compound `CC(C)[C@H]1C(=O)N(S(C)(=O)=O)[C@H]2CCN(C(=O)/C=C/CN3C[C@H]4Cc5c(F)ccc(F)c5C[C@@H]4C3)[C@H]12` (relative stereo) [Example 153, rel-(3R,3aR,6aS)-4-[4-(5,8-Difluoro-1,3,3a,4,9,9a-hexahydro-(3aS,9aS)-benzol[f]isoindol-2-yl)-but-2E-enoyl]-3-isopropyl-1-methanesulfonyl-hexahydro-pyrrolo[3,2-b]pyrrol-2-one hydrochloride], in the experiment with Intracellular elastase, the duration of effect entry was “at least 6 hours”. In addition, in experiment [1], the 50% inhibitory concentration (IC50) came to 114 nM.

For the compound `CC(C)[C@H]1C(=O)N(S(C)(=O)=O)[C@H]2CCN(C(=O)/C=C/c3ccc(CN4CCCCC4)cc3)[C@H]12.Cl` (relative stereo) [Example 158, rel-(3R,3aR,6aS)-3-Isopropyl-1-methanesulfonyl-4-[3-(4-piperidin-1-ylmethyl-phenyl)-(E)-acryloyl]-hexahydro-pyrrolo[3,2-b]pyrrol-2-one hydrochloride], the duration of effect entry in the experiment on Intracellular elastase is “at least 6 hours”. In addition, the half-maximal inhibitory concentration (IC50) in experiment [1] was found to be 19 nM.

As for `CC(C)[C@H]1C(=O)N(S(C)(=O)=O)[C@H]2CCN(C(=O)/C=C/c3ccc(CN(C)C)cc3)[C@H]12` (relative stereo) [Example 159, hydrochloride], in the experiment with Intracellular elastase, the duration of effect result is given as “at least 6 hours”. For the same compound, the IC50 in experiment [1] is 17 nM.

As for `CC(C)[C@H]1C(=O)N(S(C)(=O)=O)[C@H]2CCN(C(=O)c3ccc(CN4CCCC4)cc3)[C@H]12.Cl` (relative stereo) [Example 173, rel-(3R,3aR,6aS)-3-Isopropyl-1-methanesulfonyl-4-(4-pyrrolidin-1-ylmethyl-benzoyl)-hexahydro-pyrrolo[3,2-b]pyrrol-2-one hydrochloride], the duration of effect result in the experiment on Intracellular elastase is “at least 6 hours”. For the same compound, in experiment [1], the IC50 turned out to be 65 nM.

For the compound `CC(C)[C@H]1C(=O)N(S(C)(=O)=O)[C@H]2CCN(C(=O)c3ccc(CN4CCCCC4)cc3)[C@H]12.Cl` (relative stereo) [Example 174, rel-(3R,3aR,6aS)-3-Isopropyl-1-methanesulfonyl-4-(4-piperidin-1-ylmethyl-benzoyl)-hexahydro-pyrrolo[3,2-b]pyrrol-2-one hydrochloride], the duration of effect result in the experiment on Intracellular elastase is recorded as “at least 6 hours”. Moreover, in experiment [1], the IC50 amounted to 13 nM.
